Reference: US8691187B2, “Imaging agents for detecting neurological disorders” (Eli Lilly and Company, priority 2009, dated 2014)

Experiments:
tau aggregates = assay: Fluorescent compound staining on human AD brain sections (tau IHC double labeling); type: binding; settings: Table 2 acetylenes; 100 uM compound; qualitative rating + to ++++ or words
From the text: (§1) Native forms of tau (various isoforms, hyperphosphorylated) and amyloid aggregates are present in brain sections and therefore preferred for compound testing. Using the self-fluorescence of a test compound can give an indication of whether the compound binds to tau tangles/PHFs and/or amyloid plaques. This is further confirmed by immunostaining with Aβ and tau antibodies and overlaying the images. […] However, it is possible to “rate” the signal strength qualitatively and distinguish compounds that show binding to these aggregates.
(§2) In one of the embodiments of the present invention, the self-fluorescence of the compound of formula (I) is used to determine whether the compound binds to tau/amyloid in the brain sections and to give it a qualitative rating. The next step is to proceed to the autoradiography using different brain types for further evaluation and quantitation.
(§3) Tau fluorescent compounds staining on human brain sections (Double or triple labeled with tau and β-amyloid Immunohistochemistry (IHC))
(§4) Serial sections (6 μm thick) from OCT-embedded frozen blocks of front lobe were used for staining (OCT—optimal cutting temperature). After fixation and quenching of autofluorescence, tissue sections were incubated with in 100 μM of tau compound in 50% ethanol PBS for 60 min. Then sections were dipped briefly into water, rinsed in PBS, blocked with 5% normal horse serum in PBS for 1 hour at room temperature. After blocking, the tissue was incubated with tau or β-amyloid primary antibody at 4° C. overnight in a humid chamber. Next day, the sections were washed with PBS and then incubated with secondary antibody for 1 hour.

AD brain sections = assay: Fluorescent compound staining on human AD brain sections (self-fluorescence, overall binding); settings: figure legends; double labeling at 100 uM
From the text: as §1, §2, §3, §4

synthetic tau = synthetic tau (Homo sapiens, UniProt P10636); assay: Synthetic tau Kd (F-18 labeled and cold compound, filtration); type: binding
Sequence of synthetic tau (P10636 whole entry): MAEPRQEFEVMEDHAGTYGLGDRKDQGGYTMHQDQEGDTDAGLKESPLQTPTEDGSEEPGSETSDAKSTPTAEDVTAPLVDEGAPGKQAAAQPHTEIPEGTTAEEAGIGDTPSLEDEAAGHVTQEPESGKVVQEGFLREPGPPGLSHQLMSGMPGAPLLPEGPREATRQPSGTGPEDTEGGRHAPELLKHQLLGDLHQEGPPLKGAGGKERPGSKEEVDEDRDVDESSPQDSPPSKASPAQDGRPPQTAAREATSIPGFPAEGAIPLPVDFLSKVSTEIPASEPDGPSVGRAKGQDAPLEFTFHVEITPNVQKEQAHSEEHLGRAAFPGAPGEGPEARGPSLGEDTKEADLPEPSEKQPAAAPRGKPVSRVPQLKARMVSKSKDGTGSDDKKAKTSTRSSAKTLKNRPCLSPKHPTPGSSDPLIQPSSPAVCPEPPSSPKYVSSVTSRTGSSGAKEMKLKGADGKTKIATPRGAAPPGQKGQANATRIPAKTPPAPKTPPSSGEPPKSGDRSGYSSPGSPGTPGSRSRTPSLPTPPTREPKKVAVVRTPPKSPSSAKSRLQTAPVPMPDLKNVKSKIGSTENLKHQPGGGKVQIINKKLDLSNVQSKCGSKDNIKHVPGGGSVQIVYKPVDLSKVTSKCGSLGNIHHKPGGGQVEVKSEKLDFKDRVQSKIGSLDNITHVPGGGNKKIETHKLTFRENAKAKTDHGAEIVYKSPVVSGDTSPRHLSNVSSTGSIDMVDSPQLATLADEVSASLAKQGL
Description: (§5) Pick one brain section for each type and air-dry in hood. A solution of diluted F-18 labeled tracer (40 μCi/mL, 500 μL) which was obtained from the dilution of F-18 tracer with 1×PBS containing 2.5% EtOH and 2.5% DMSO was applied onto each slides to cover the whole tissue section. The resulting slides were incubated at room temperature for 90 minutes, drained, and placed onto a slide holder. The slides were then washed sequentially with 1×PBS for 1 min; 70% EtOH in 1×PBS for 2 min; 30% EtOH in 1×PBS for 2 min; and 1×PBS for 1 min. The slides were dried in the hood for 30 min, and then placed on Fuji imaging plates and exposed overnight. The imaging plates were then scanned and the signal was measured using Fuji software to produce an autoradiography image of the brain section. (PBS—Phosphate Buffer Saline) Protocol for Synthetic Beta-amyloid and Tau Kds
Various concentrations solution of F-18 labeled and its parent cold compound in 1×PBS containing 5% Ethanol and 5% DMSO (pH 7.4) were incubated with synthetic beta-Amyloid or synthetic tau at room temperature in glass tubes for 90 min. The reaction mixture in each tube was filtered under vacuum through a microfiber filter. Each tube was washed with a solution of 20% EtOH in PBS. The PBS wash solution was filtered under vacuum through the filters. Each filter was then washed with a solution of 20% EtOH in PBS and then placed into a gamma counter vial for CPM counting. The data obtained was plotted for Kd determination.

human hepatocytes = assay: Stability in human hepatocytes; type: in vitro ADME
[1] = Mouse and rat brain microPET imaging (brain uptake); type: in vivo; settings: rats and mice
Description: Mouse and Rat Brain microPET Imaging
Wild type mice and rats were injected intravenously with the candidate tracers. Mice (weight range 25-45 g) were injected with doses between 180 and 300 μCi in 200 uL of saline solution. Rats (weight range 300-400 g) were injected with doses between 300 and 500 μCi of tracer in 400 μL of saline solution. Anesthesia was induced and maintained with Isoflurane. CT and PET scans were performed with a MM INVEON scanner (SIEMENS™). Acquisition for CT images preceded PET scanning and lasted 5 minutes. Only several minutes after the beginning of the PET acquisition, the radioactive dose was injected into the animal through the tail vein. Images were generated as dynamic scans that typically lasted 30 minutes. The initial image analysis consisted of determining whether there was uptake of the tracer in the brain which would establish its ability to cross the blood-brain barrier. All measurements were performed at the time point of 5 minutes following the injection of the tracer. The degree of uptake in the brain was estimated relative to the uptake of the traces in the region of neck muscles. The ratio between the percentage of injected dose per gram in the brain and that of the muscular neck region was provided as an estimate of brain uptake.

human AD brain slices = assay: Human AD brain section autoradiography with F-18 tracer; type: binding; settings: for GM Intensity (comp. with W372): compared with W372; for Tx/tau/amyloid correlation: tracer signal vs tau and amyloid load
From the text: Furthermore, the selectivity can be evaluated in brains containing only Aβ plaques/no tau aggregates, Aβ plaques/and tau aggregates, and control brains. Unfortunately, there are no AD brains with only tau and no Aβ present. By testing radiolabeled tracers in these brain sections, one can more quantitative evaluate the relative binding strength (signal strength) and selectivity of various test compounds as they all contain the same radioactive tracer. For examples, if a test tracer binds only to tau, and not amyloid, it should show no signal in the Aβ plaques only brain sections. If a compound binds only to amyloid, it should show uptake in both types of brains. The difficulty of identifying and further quantifying selective compounds lies in the relative abundance of amyloid vs. tau, which is difficult to measure.
Human AD Brain Section Autoradiography
5 micron thick human AD brain slices were first examined using antibodies for Aβ and Tau to determine whether the tested human brain contains Aβ and Tau. Thus, three types of human brain slices were selected for autoradiography: Aβ+/Tau+; Aβ+/Tau−; and Aβ−/Tau−(control).
The experimental protocol is as follows:
as §5

AchE = AchE (Homo sapiens, UniProt P22303); assay: AchE activity; type: biochemical
Sequence of AchE (P22303 32-614): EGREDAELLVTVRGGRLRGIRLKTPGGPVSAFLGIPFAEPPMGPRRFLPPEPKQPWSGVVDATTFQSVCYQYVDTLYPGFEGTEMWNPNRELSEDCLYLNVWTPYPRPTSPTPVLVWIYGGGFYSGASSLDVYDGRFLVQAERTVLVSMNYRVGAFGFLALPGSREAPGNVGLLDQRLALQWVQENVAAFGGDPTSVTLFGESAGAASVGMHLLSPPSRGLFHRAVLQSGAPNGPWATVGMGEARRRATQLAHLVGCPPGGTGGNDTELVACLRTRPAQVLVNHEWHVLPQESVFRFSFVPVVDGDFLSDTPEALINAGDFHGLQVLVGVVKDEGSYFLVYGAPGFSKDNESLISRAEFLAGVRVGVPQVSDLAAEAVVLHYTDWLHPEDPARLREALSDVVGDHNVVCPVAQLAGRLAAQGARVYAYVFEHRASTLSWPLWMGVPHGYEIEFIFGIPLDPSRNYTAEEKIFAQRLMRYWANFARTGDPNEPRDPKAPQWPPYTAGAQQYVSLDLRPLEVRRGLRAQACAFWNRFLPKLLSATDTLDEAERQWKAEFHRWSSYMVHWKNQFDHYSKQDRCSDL

tau/Ab = assay: selectivity (tau/Ab); type: binding
MAO-A = target: T1, MAO-A (Homo sapiens, UniProt P21397); assay: MAO inhibition, MAO-A; type: biochemical
T1 sequence (P21397 1-527): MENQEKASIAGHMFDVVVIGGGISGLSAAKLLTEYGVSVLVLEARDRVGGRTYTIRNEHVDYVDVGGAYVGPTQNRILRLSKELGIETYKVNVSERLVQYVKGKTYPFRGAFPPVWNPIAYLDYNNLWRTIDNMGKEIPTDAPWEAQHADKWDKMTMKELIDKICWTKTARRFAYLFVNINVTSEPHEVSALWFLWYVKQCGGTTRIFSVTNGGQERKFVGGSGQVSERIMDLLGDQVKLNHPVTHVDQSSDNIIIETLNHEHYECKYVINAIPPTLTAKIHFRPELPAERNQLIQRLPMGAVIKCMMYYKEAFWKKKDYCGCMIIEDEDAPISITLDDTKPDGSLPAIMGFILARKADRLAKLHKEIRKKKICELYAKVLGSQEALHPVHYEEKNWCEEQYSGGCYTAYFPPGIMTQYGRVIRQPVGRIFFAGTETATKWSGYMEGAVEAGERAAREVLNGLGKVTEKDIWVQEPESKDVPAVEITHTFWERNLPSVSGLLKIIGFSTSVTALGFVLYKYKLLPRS

MAO-B = target: T2, MAO-B (Homo sapiens, UniProt P27338); assay: MAO inhibition, MAO-B; type: biochemical
T2 sequence (P27338 1-520): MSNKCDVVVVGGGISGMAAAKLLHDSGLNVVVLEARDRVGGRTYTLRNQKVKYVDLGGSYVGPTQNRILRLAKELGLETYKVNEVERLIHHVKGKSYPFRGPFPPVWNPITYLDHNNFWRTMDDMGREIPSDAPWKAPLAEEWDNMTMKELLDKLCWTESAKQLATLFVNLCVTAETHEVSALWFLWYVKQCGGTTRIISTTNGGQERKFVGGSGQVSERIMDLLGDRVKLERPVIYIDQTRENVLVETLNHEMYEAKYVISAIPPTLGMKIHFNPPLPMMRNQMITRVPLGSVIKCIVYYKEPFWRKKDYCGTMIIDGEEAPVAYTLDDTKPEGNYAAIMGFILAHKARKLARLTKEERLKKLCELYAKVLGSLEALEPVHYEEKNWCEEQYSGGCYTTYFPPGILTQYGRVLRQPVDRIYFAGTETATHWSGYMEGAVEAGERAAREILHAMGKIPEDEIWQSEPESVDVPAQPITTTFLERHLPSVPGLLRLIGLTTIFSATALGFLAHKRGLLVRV

Monoamine transp. = assay: CNS selectivity panel, monoamine transporter; type: binding
Bombesin BB3 = target: T3, Bombesin BB3 (Homo sapiens, UniProt P32247); assay: CNS selectivity panel, Bombesin BB3; type: binding; settings: 10 uM (printed in T777 column)
T3 sequence (P32247 1-399): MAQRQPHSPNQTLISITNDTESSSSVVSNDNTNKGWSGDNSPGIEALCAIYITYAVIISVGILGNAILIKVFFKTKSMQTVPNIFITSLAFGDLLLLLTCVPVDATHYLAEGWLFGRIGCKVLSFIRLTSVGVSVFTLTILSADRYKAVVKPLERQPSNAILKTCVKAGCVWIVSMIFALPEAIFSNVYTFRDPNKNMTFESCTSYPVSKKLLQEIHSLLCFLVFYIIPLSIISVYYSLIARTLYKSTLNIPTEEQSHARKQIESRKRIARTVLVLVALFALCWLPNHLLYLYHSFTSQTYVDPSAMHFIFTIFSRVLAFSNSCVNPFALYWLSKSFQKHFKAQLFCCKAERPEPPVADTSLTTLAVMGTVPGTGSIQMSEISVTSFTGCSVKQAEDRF

Norepinephrine transp. = Norepinephrine transp. (Homo sapiens, UniProt P23975); assay: CNS selectivity panel, norepinephrine transporter; type: binding
Sequence of Norepinephrine transp. (P23975 whole entry): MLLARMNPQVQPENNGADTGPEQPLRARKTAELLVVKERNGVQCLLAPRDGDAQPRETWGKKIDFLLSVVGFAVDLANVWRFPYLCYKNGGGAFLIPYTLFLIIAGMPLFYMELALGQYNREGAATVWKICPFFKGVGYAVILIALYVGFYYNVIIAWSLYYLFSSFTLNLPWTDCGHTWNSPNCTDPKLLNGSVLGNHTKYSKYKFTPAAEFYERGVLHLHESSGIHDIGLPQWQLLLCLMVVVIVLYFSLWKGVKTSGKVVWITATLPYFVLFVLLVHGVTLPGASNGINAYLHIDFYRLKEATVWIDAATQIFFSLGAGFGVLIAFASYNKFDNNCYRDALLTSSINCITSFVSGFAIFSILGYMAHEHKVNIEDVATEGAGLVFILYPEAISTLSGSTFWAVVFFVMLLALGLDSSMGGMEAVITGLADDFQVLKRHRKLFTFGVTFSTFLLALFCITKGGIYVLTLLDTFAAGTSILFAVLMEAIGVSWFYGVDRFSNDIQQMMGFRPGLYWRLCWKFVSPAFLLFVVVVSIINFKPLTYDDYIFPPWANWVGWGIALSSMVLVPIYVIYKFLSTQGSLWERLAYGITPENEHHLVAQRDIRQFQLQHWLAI

| SMILES | Brain Section Staining: tau (tau aggregates) | binding of fluorescent compound to AD brain sections confirmed by immunostaining with tau or Aβ antibodies (AD brain sections) | Kd (synthetic tau; Scheme 5 table) | human hepatocytes (stability) (human hepatocytes) | Brain uptake [1] | GM Intensity (comp. with W372) (human AD brain slices) | Tx/tau/amyloid correlation (human AD brain slices) | IC50 (AchE) | Kd (synthetic tau; Scheme 6 table) | selectivity (tau/Ab) (tau/Ab) | inhibition at 1 µM (MAO-A) | inhibition at 1 µM (MAO-B) | CNS selectivity panel: Monoamine transp. (Monoamine transp.; 10 uM) | CNS selectivity panel: Bombesin BB3 (Bombesin BB3) | CNS selectivity panel: Norepinephrine transp. (Norepinephrine transp.; 10 uM) | IC50 (Monoamine transp.) | IC50 (Norepinephrine transp.) |
| --- | --- | --- | --- | --- | --- | --- | --- | --- | --- | --- | --- | --- | --- | --- | --- | --- | --- |
| CN(C)c1ccc(C#Cc2nc3ccccc3n2CCF)cc1 [Compound T482, 4-((1-(2-Fluoroethyl)-1H-benzo[d]imidazol-2-yl)ethynyl)-N,N-dimethylaniline] | Mostly binds to Tau | total tau binding |  |  |  |  |  |  |  |  |  |  |  |  |  |  |  |
| COc1ccc2nc3cc(-c4ccc(F)nc4)ccn3c2c1 [Compound T663, 3-(6-Fluoropyridin-3-yl)-8-methoxybenzo[4,5]imidazo[1,2-a]pyridine] |  |  | 105 nM |  |  |  |  |  |  |  |  |  |  |  |  |  |  |
| FC1CCN(c2ccn3c(n2)nc2ccccc23)CC1 [Compound T777, 2-(4-fluoropiperidin-1-yl)benzo[4,5]imidazo[1,2-a]pyrimidine] |  |  |  | not stable (polar metabolites) | yes (4 rats, 4 mice) | 9% | yes | 3000 nM | 19 nM | 25× | 9% | 0% | transp. (49%) | Bombesin BB3 (49%) | transp. (42%) |  |  |
| FCCC1CCN(c2ccn3c(n2)nc2ccccc23)CC1 [Compound T808, 2-(4-(2-fluoroethyl)piperidin-1-yl)benzo[4,5]imidazo[1,2-a]pyrimidine] |  |  |  | stable | yes (4 rats, 5 mice) | 18% | yes | 3000 nM | 22 nM | 27× | 22% | 29% |  | Bombesin BB3 (<20%) |  | 2700 nM | 820 nM |
